# In US8901118B2, “Compounds and methods for kinase modulation, and indications therefor” (Plexxikon Inc., priority 2010, dated 2014):
# Tests used:
# BCR-NTRK2 BaF3 cells = target: T1, BCR-NTRK2 BaF3 cells (Homo sapiens, UniProt Q16620); assay: BaF3 BCR-NTRK2 cell proliferation assay (ATPlite); assay type: cell-based; conditions: read-out: Inhibition of Cell Proliferation IC50, BCR/BaF3 TrkB
# T1 construct: fused on or other part: P11274 (Breakpoint cluster region protein)
# Method in brief: (§1)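 BaF3 lines were seeded at 10,000 cells/well in growth medium with 1 mg/mL G418 but no IL-3, and MV-4-11 cells at 25,000 cells/well; plates were left overnight at 37 °C. Compounds were added as an 8-point 1:3 series with a top concentration of 10 μM and incubated 3 days. IC50 was taken from ATPlite luminescence.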
# SKNSH cells = assay: SKNSH (human neuroblastoma) cell proliferation assay (ATPlite); assay type: cell-based; conditions: SK-N-SH, read-out: Inhibition of Cell Proliferation IC50, SKNSH
# Method in brief: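 SK-N-SH human neuroblastoma cells grown in RPMI with 10% FBS were pelleted, resuspended at 2×10^4 cells/mL, and plated at 3,000 cells per well (150 μL) in 96-well plates, then kept overnight at 37° C. in 5% CO2. Compounds in an 8-point 1:3 DMSO series were added as 0.75 μL aliquots.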
# CYP2D6 = CYP2D6 (Homo sapiens, UniProt P10635); assay: CYP2D6 inhibition (fluorescent substrate AMMC); assay type: in vitro ADME; conditions: read-out: Cyp IC50 2D6
# Sequence of CYP2D6 (P10635 whole entry): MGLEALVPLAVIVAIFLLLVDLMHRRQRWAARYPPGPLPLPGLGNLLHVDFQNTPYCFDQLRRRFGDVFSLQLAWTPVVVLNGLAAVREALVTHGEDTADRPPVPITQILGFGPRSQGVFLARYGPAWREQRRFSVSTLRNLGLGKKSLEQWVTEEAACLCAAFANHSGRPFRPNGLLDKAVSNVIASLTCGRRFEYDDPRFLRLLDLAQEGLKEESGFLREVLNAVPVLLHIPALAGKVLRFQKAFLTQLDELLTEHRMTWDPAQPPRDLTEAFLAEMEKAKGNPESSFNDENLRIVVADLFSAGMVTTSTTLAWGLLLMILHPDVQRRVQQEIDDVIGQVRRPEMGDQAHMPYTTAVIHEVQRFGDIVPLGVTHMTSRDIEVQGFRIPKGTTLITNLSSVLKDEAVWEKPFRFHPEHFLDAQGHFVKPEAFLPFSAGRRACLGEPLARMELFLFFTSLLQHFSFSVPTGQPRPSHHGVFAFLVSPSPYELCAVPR
# Method in brief: (§2)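 Compounds, serially diluted 1:1 over 10 points in NADPH-regenerating cofactor mix with 5% acetonitrile, were preincubated 10 min at 37 °C, then run with enzyme and substrate at 37 °C (CYP1A2 15 min; CYP2C9 45 min; CYP2C19, CYP2D6 30 min). Product fluorescence gave IC50s.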
# BCR-NTRK1 BaF3 cells = target: T2, BCR-NTRK1 BaF3 cells (Homo sapiens, UniProt P04629); assay: BaF3 BCR-NTRK1 cell proliferation assay (ATPlite); assay type: cell-based; conditions: read-out: Inhibition of Cell Proliferation IC50, BCR/BaF3 TrkA
# T2 construct: fused on or other part: P11274 (Breakpoint cluster region protein)
# T2 sequence (P04629 510-781): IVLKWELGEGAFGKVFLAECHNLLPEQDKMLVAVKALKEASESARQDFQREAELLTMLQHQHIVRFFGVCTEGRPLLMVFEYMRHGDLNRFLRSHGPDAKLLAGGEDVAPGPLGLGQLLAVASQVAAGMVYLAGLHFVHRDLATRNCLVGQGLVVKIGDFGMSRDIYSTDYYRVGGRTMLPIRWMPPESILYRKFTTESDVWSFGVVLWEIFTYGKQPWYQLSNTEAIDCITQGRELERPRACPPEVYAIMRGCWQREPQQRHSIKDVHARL
# Method in brief: as §1
# CYP2C19 = CYP2C19 (Homo sapiens, UniProt P33261); assay: CYP2C19 inhibition (fluorescent substrate CEC); assay type: in vitro ADME; conditions: read-out: Cyp IC50 2C19
# Sequence of CYP2C19 (P33261 whole entry): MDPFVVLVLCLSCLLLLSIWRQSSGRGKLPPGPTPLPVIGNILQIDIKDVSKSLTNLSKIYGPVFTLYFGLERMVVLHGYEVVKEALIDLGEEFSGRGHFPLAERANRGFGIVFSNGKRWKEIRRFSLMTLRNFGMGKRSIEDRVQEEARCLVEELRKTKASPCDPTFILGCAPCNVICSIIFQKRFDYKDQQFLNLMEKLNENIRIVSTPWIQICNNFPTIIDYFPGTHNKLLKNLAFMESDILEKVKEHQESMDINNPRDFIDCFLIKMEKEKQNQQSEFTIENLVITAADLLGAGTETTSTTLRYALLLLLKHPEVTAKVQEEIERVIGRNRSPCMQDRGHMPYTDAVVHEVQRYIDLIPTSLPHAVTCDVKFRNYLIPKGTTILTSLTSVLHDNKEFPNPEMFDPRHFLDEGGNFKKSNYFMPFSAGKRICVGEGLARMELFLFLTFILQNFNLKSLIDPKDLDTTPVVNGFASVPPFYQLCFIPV
# Method in brief: as §2
# T1 sequence (Q16620 538-807): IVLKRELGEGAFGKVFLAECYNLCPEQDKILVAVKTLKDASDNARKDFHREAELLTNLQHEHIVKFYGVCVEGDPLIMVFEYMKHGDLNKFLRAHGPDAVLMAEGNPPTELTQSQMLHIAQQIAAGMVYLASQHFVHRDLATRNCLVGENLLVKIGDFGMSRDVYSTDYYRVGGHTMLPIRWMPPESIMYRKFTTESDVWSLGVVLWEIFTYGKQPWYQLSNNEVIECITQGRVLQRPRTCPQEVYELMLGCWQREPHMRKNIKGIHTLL
SMILES,IC50 (BCR-NTRK2 BaF3 cells) [nM],IC50 (SKNSH cells) [nM],IC50 (CYP2D6) [nM],IC50 (BCR-NTRK1 BaF3 cells) [nM],IC50 (CYP2C19) [nM]
"COc1ccc(Nc2ccc(Cc3c[nH]c4ncnc(C)c34)c(F)n2)cn1 [Compound P-4002, [6-Fluoro-5-(4-methyl-7H-pyrrolo[2,3-d]pyrimidin-5-ylmethyl)-pyridin-2-yl]-(6-methoxy-pyridin-3-yl)-amine]",< 1000,< 100,> 10000,< 1000,> 10000
"COc1ncnc2[nH]cc(Cc3ccc(Nc4ccc(Cl)nc4)nc3F)c12 [Compound P-4003, (6-Chloro-pyridin-3-yl)-[6-fluoro-5-(4-methoxy-7H-pyrrolo[2,3-d]pyrimidin-5-ylmethyl)-pyridin-2-yl]-amine]",< 1000,> 1000,> 10000,< 1000,> 10000
"CCn1cc(Nc2ccc(Cc3c[nH]c4ncnc(OC)c34)c(F)n2)cn1 [Compound P-4011, (1-Ethyl-1H-pyrazol-4-yl)-[6-fluoro-5-(4-methoxy-7H-pyrrolo[2,3-d]pyrimidin-5-ylmethyl)-pyridin-2-yl]-amine]",< 1000,> 1000,> 10000,< 1000,> 10000
"CCOc1ncnc2[nH]cc(Cc3ccc(Nc4cnn(CC)c4)nc3F)c12 [Compound P-4012, [5-(4-Ethoxy-7H-pyrrolo[2,3-d]pyrimidin-5-ylmethyl)-6-fluoro-pyridin-2-yl]-(1-ethyl-1H-pyrazol-4-yl)-amine]",< 100,> 1000,> 10000,< 1000,> 10000
"CCn1cc(Nc2ccc(Cc3c[nH]c4ncnc(C)c34)c(F)n2)cn1 [Compound P-4013, (1-Ethyl-1H-pyrazol-4-yl)-[6-fluoro-5-(4-methyl-7H-pyrrolo[2,3-d]pyrimidin-5-ylmethyl)-pyridin-2-yl]-amine]",< 1000,> 1000,> 10000,< 1000,> 10000
"CCn1cc(Nc2ccc(Cc3c[nH]c4ncnc(OCCOC)c34)c(F)n2)cn1 [Compound P-4014, (1-Ethyl-1H-pyrazol-4-yl)-{6-fluoro-5-[4-(2-methoxy-ethoxy)-7H-pyrrolo[2,3-d]pyrimidin-5-ylmethyl]-pyridin-2-yl}-amine]",< 1000,> 10000,< 5000,< 1000,> 10000
"COCCOc1ncnc2[nH]cc(Cc3ccc(Nc4ccc(C)nc4)nc3F)c12 [Compound P-4015, {6-Fluoro-5-[4-(2-methoxy-ethoxy)-7H-pyrrolo[2,3-d]pyrimidin-5-ylmethyl]-pyridin-2-yl}-(6-methyl-pyridin-3-yl)-amine]",< 1000,> 1000,> 10000,< 1000,> 10000
"CCOc1ncnc2[nH]cc(Cc3ccc(Nc4ccc(C)nc4)nc3F)c12 [Compound P-4017, [5-(4-Ethoxy-7H-pyrrolo[2,3-d]pyrimidin-5-ylmethyl)-6-fluoro-pyridin-2-yl]-(6-methyl-pyridin-3-yl)-amine]",< 1000,< 1000,> 10000,< 1000,> 10000
"CCOc1ncnc2[nH]cc(Cc3ccc(Nc4ccc(OC)nc4)nc3F)c12 [Compound P-4018, [5-(4-Ethoxy-7H-pyrrolo[2,3-d]pyrimidin-5-ylmethyl)-6-fluoro-pyridin-2-yl]-(6-methoxy-pyridin-3-yl)-amine]",< 100,< 1000,> 10000,< 100,< 5000
"COCCOc1ncnc2[nH]cc(Cc3ccc(Nc4ccc(OC)nc4)nc3F)c12 [Compound P-4019, {6-Fluoro-5-[4-(2-methoxy-ethoxy)-7H-pyrrolo[2,3-d]pyrimidin-5-ylmethyl]-pyridin-2-yl}-(6-methoxy-pyridin-3-yl)-amine]",< 100,> 1000,> 10000,< 1000,5000 to 10000
"COc1ccc(Nc2ccc(Cc3c[nH]c4ncnc(C5CC5)c34)c(F)n2)cn1 [Compound P-4023, [5-(4-cyclopropyl-7H-pyrrolo[2,3-d]pyrimidin-5-ylmethyl)-6-fluoro-pyridin-2-yl]-(6-methoxy-pyridin-3-yl)-amine]",< 100,< 1000,5000 to 10000,< 100,< 5000
"CCOc1ccc(Nc2ccc(C(=O)c3c[nH]c4ncnc(OC)c34)c(F)n2)cn1 [Compound P-4024, [6-(6-Ethoxy-pyridin-3-ylamino)-2-fluoro-pyridin-3-yl]-(4-methoxy-7H-pyrrolo[2,3-d]pyrimidin-5-yl)-methanone]",< 100,> 1000,> 10000,< 100,> 10000

# The next lines start with the values.
IC50 (BCR-NTRK2 BaF3 cells) [nM],IC50 (SKNSH cells) [nM],IC50 (CYP2D6) [nM],IC50 (BCR-NTRK1 BaF3 cells) [nM],IC50 (CYP2C19) [nM],SMILES
< 100,< 1000,> 10000,< 100,< 5000,"COc1ccc(Nc2ccc(Cc3c[nH]c4ncnc(OC)c34)c(F)n2)cn1 [Compound P-4001, [6-Fluoro-5-(4-methoxy-7H-pyrrolo[2,3-d]pyrimidin-5-ylmethyl)-pyridin-2-yl]-(6-methoxy-pyridin-3-yl)-amine]"
< 10,< 1000,> 10000,< 10,> 10000,"COc1ncnc2[nH]cc(Cc3ccc(Nc4ccc(C5CC5)nc4)nc3F)c12 [Compound P-4004, (6-Cyclopropyl-pyridin-3-yl)-[6-fluoro-5-(4-methoxy-7H-pyrrolo[2,3-d]pyrimidin-5-ylmethyl)-pyridin-2-yl]-amine]"
< 10,< 1000,> 10000,< 100,> 10000,"CCOc1ccc(Nc2ccc(Cc3c[nH]c4ncnc(OC)c34)c(F)n2)cn1 [Compound P-4005, (6-Ethoxy-pyridin-3-yl)-[6-fluoro-5-(4-methoxy-7H-pyrrolo[2,3-d]pyrimidin-5-ylmethyl)-pyridin-2-yl]-amine]"
< 10,< 100,> 10000,< 100,> 10000,"CCOc1ccc(Nc2ccc(Cc3c[nH]c4ncnc(C)c34)c(F)n2)cn1 [Compound P-4006, (6-Ethoxy-pyridin-3-yl)-[6-fluoro-5-(4-methyl-7H-pyrrolo[2,3-d]pyrimidin-5-ylmethyl)-pyridin-2-yl]-amine]"
< 100,< 1000,> 10000,< 10,> 10000,"CCc1ccc(Nc2ccc(Cc3c[nH]c4ncnc(OC)c34)c(F)n2)cn1 [Compound P-4007, (6-Ethyl-pyridin-3-yl)-[6-fluoro-5-(4-methoxy-7H-pyrrolo[2,3-d]pyrimidin-5-ylmethyl)-pyridin-2-yl]-amine]"
< 100,> 1000,> 10000,< 100,> 10000,"CCOc1ccc(Nc2ccc(Cc3c[nH]c4ncnc(OCCOC)c34)c(F)n2)cn1 [Compound P-4008, (6-Ethoxy-pyridin-3-yl)-{6-fluoro-5-[4-(2-methoxy-ethoxy)-7H-pyrrolo[2,3-d]pyrimidin-5-ylmethyl]-pyridin-2-yl}-amine]"
< 10,< 100,> 10000,< 100,5000 to 10000,"CCc1ccc(Nc2ccc(Cc3c[nH]c4ncnc(C)c34)c(F)n2)cn1 [Compound P-4009, (6-Ethyl-pyridin-3-yl)-[6-fluoro-5-(4-methyl-7H-pyrrolo[2,3-d]pyrimidin-5-ylmethyl)-pyridin-2-yl]-amine]"
< 100,< 1000,> 10000,< 1000,> 10000,"COc1ncnc2[nH]cc(Cc3ccc(Nc4ccc(C)nc4)nc3F)c12 [Compound P-4010, [6-Fluoro-5-(4-methoxy-7H-pyrrolo[2,3-d]pyrimidin-5-ylmethyl)-pyridin-2-yl]-(6-methyl-pyridin-3-yl)-amine]"
< 10,> 1000,> 10000,< 100,> 10000,"CCc1ccc(Nc2ccc(Cc3c[nH]c4ncnc(OCCOC)c34)c(F)n2)cn1 [Compound P-4016, (6-Ethyl-pyridin-3-yl)-{6-fluoro-5-[4-(2-methoxy-ethoxy)-7H-pyrrolo[2,3-d]pyrimidin-5-ylmethyl]-pyridin-2-yl}-amine]"
< 10,< 1000,5000 to 10000,< 10,5000 to 10000,"COc1ccc(Nc2ccc(C(=O)c3c[nH]c4ncnc(C5CC5)c34)c(F)n2)cn1 [Compound P-4022, (4-cyclopropyl-7H-pyrrolo[2,3-d]pyrimidin-5-yl)-[2-fluoro-6-(6-methoxy-pyridin-3-ylamino)-pyridin-3-yl]-methanone]"
